Structures can show the parent of a compound that is named as a salt.
Biological target: Sphingosine 1-phosphate receptor 1 (Homo sapiens, UniProt P21453)
Assay: S1P1 receptor agonists, dose response, cell-based, agonist mode, 60K MLSMR set (AID 468)
[1] = inactive by the depositor's call

Sphingosine 1-phosphate receptor 1, sequence (P21453 whole entry): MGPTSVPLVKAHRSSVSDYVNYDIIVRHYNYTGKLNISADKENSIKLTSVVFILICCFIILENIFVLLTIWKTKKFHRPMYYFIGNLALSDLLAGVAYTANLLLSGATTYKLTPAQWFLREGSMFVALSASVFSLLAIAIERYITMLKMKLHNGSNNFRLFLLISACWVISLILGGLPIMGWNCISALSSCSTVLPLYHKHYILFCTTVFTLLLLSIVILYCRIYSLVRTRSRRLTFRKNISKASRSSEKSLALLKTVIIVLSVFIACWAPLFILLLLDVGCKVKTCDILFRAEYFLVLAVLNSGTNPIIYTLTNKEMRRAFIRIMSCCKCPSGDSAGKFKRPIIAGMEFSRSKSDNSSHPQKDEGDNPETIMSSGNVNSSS

Structure (SMILES): Nc1nonc1C(=O)NCCNCc1cc(Br)ccc1OCc1ccccc1F [4-amino-N-[2-[[5-bromo-2-(2-fluorobenzyl)oxy-benzyl]amino]ethyl]furazan-3-carboxamide;hydrochloride]
- EC50: 8.07 µM

Structure (SMILES): Nc1nonc1C(=O)NCCNCc1cc(Br)ccc1OCc1ccc(F)cc1 [4-amino-N-[2-[[5-bromo-2-(4-fluorobenzyl)oxy-benzyl]amino]ethyl]furazan-3-carboxamide;hydrochloride]
- EC50: 6.9 µM

Structure (SMILES): Cc1ccc(S(=O)(=O)n2nc(C)c(Br)c2C)c(C)c1C [4-bromanyl-3,5-dimethyl-1-(2,3,4-trimethylphenyl)sulfonyl-pyrazole]
- EC50 [1]: 88 µM

Structure (SMILES): CCCCOc1ncnc2c1[nH]c1ccc(F)cc12 [4-butoxy-8-fluoranyl-5H-pyrimido[5,4-b]indole]
- EC50: 2.73 µM

Structure (SMILES): CCCCOc1ccc(S(=O)(=O)Nc2cc(OC)ccc2OC)cc1 [4-butoxy-N-(2,5-dimethoxyphenyl)benzenesulfonamide]
- EC50 [1]: 12.9 µM

Structure (SMILES): CCCCOc1ccc(S(=O)(=O)Nc2cccnc2)cc1 [4-butoxy-N-(3-pyridinyl)benzenesulfonamide]
- EC50: 9.47 µM

Structure (SMILES): CCN(CC)S(=O)(=O)c1cc(C(=O)Nc2ccncc2)ccc1Cl [4-chloranyl-3-(diethylsulfamoyl)-N-pyridin-4-yl-benzamide]
- EC50 [1]: 52.3 µM

Structure (SMILES): Cc1cc(N2CCOCC2)nc(NCc2ccccc2)n1 [4-methyl-6-(4-morpholinyl)-N-(phenylmethyl)-2-pyrimidinamine]
- EC50 [1]: 13.2 µM

Structure (SMILES): Cc1ccc(S(=O)(=O)Nc2ccc3ncccc3c2)cc1 [4-methyl-N-(6-quinolinyl)benzenesulfonamide]
- EC50: 7.8 µM

Structure (SMILES): Cc1nc2ncnn2c(N2CCN(c3cccc(C(F)(F)F)c3)CC2)c1C [5,6-Dimethyl-7-[4-(3-trifluoromethyl-phenyl)-piperazin-1-yl]-[1,2,4]triazolo[1,5-a]pyrimidine]
- EC50 [1]: 14.1 µM

Structure (SMILES): Cc1sc2ncnc(Sc3nnnn3-c3ccccc3)c2c1C [5,6-dimethyl-4-(1-phenyltetrazol-5-yl)sulfanylthieno[2,3-d]pyrimidine]
- EC50: > 95 µM

Structure (SMILES): c1ccc(C(Cc2nc(-c3cccnc3)no2)c2ccccc2)cc1 [5-(2,2-diphenylethyl)-3-(3-pyridinyl)-1,2,4-oxadiazole]
- EC50: 2.82 µM

Structure (SMILES): COc1ccc(-c2noc(-c3cccc(OC)c3OC)n2)cc1OC [5-(2,3-dimethoxyphenyl)-3-(3,4-dimethoxyphenyl)-1,2,4-oxadiazole]
- EC50: 1.45 µM

Structure (SMILES): COc1ccc(-c2noc(-c3ccccc3F)n2)cc1 [5-(2-fluorophenyl)-3-(4-methoxyphenyl)-1,2,4-oxadiazole]
- EC50: 7.38 µM

Structure (SMILES): O=C(Nc1ccc(O)cc1)c1cc2n(n1)C(C(F)(F)F)CC(c1ccco1)N2 (configuration not stated) [5-(2-furanyl)-N-(4-hydroxyphenyl)-7-(trifluoromethyl)-1,5,6,7-tetrahydropyrazolo[1,5-a]pyrimidine-2-carboxamide]
- EC50: 3.63 µM

Structure (SMILES): COc1ccccc1-c1nc(-c2cccc(C)c2)no1 [5-(2-methoxyphenyl)-3-(3-methylphenyl)-1,2,4-oxadiazole]
- EC50: 1.34 µM

Structure (SMILES): COc1ccccc1-c1cc(C(=O)Nc2ccccc2SC)no1 [5-(2-methoxyphenyl)-N-(2-methylsulfanylphenyl)-1,2-oxazole-3-carboxamide]
- EC50: 6.26 µM

Structure (SMILES): COc1ccccc1-c1cc(C(=O)Nc2cc(C)nn2-c2ccccc2)no1 [5-(2-methoxyphenyl)-N-(3-methyl-1-phenyl-1H-pyrazol-5-yl)isoxazole-3-carboxamide]
- EC50 [1]: 47 µM

Structure (SMILES): CCOc1ccc(-c2nc(-c3ccc(OC)cc3)no2)cc1OCC [5-(3,4-Diethoxy-phenyl)-3-(4-methoxy-phenyl)-[1,2,4]oxadiazole]
- EC50: 0.568 µM

Structure (SMILES): CCOc1ccc(-c2nc(-c3ccccc3)no2)cc1OCC [5-(3,4-diethoxyphenyl)-3-phenyl-1,2,4-oxadiazole]
- EC50: 0.147 µM

Structure (SMILES): COc1ccc(-c2nc(-c3ccccc3OC)no2)cc1OC [5-(3,4-dimethoxyphenyl)-3-(2-methoxyphenyl)-1,2,4-oxadiazole]
- EC50: 0.166 µM

Structure (SMILES): COc1ccc(-c2nc(-c3cccc(C)c3)no2)cc1OC [5-(3,4-dimethoxyphenyl)-3-(3-methylphenyl)-1,2,4-oxadiazole]
- EC50: 1.48 µM

Structure (SMILES): COc1ccc(-c2nc(-c3ccncc3)no2)cc1OC [5-(3,4-dimethoxyphenyl)-3-(4-pyridyl)-1,2,4-oxadiazole]
- EC50: 1.85 µM

Structure (SMILES): COc1ccc(-c2nc(-c3cccc(C(F)(F)F)c3)no2)cc1OC [5-(3,4-dimethoxyphenyl)-3-[3-(trifluoromethyl)phenyl]-1,2,4-oxadiazole]
- EC50 [1]: 22.3 µM

Structure (SMILES): COc1ccccc1OCc1nc(C#N)c(N2CC(C)CC(C)C2)o1 (configuration not stated) [5-(3,5-dimethyl-1-piperidinyl)-2-[(2-methoxyphenoxy)methyl]-4-oxazolecarbonitrile]
- EC50: 4.02 µM

Structure (SMILES): Cc1cc(C)cc(-c2nc(-c3ccncc3)no2)c1 [5-(3,5-dimethylphenyl)-3-(4-pyridyl)-1,2,4-oxadiazole]
- EC50: 2.05 µM

Structure (SMILES): CCOc1ccc(C2CC(c3cccc(OC)c3OC)n3nnnc3N2)cc1Cl (configuration not stated) [5-(3-chloranyl-4-ethoxy-phenyl)-7-(2,3-dimethoxyphenyl)-1,5,6,7-tetrahydro-[1,2,3,4]tetrazolo[1,5-a]pyrimidine]
- EC50: > 95 µM

Structure (SMILES): COc1cccc(-c2cc(C(=O)Nc3ccccc3SC)no2)c1 [5-(3-methoxyphenyl)-N-(2-methylsulfanylphenyl)-1,2-oxazole-3-carboxamide]
- EC50 [1]: 18 µM

Structure (SMILES): CC(C)N1C(=O)CCC1C(=O)N1CCC(Cc2ccccc2)CC1 (configuration not stated) [5-(4-benzylpiperidine-1-carbonyl)-1-isopropyl-2-pyrrolidone]
- EC50: > 95 µM

Structure (SMILES): COc1ccccc1-n1nnnc1S(=O)(=O)Cc1ccc(Cl)cc1 [5-(4-chlorobenzyl)sulfonyl-1-(2-methoxyphenyl)tetrazole]
- EC50: 3.61 µM

Structure (SMILES): CCc1ccc(-c2nc(-c3ccncc3)no2)cc1 [5-(4-ethylphenyl)-3-(4-pyridyl)-1,2,4-oxadiazole]
- EC50: 5.7 µM

Structure (SMILES): O=C(Nc1ccccc1C(F)(F)F)c1cc(-c2ccc(O)cc2)on1 [5-(4-hydroxyphenyl)-N-[2-(trifluoromethyl)phenyl]isoxazole-3-carboxamide]
- EC50: 0.964 µM

Structure (SMILES): c1ccc(-c2ccc(-c3nc(-c4cccnc4)no3)cc2)cc1 [5-(4-phenylphenyl)-3-(3-pyridinyl)-1,2,4-oxadiazole]
- EC50: 2.35 µM

Structure (SMILES): c1ccc(-c2ccc(-c3nc(-c4ccncc4)no3)cc2)cc1 [5-(4-phenylphenyl)-3-(4-pyridyl)-1,2,4-oxadiazole]
- EC50 [1]: 10.4 µM

Structure (SMILES): Cc1cccc(-c2nc(C#N)c(NC3CCCCC3)o2)c1 [5-(cyclohexylamino)-2-(3-methylphenyl)-1,3-oxazole-4-carbonitrile]
- EC50 [1]: 13.4 µM

Structure (SMILES): O=C(Nc1nc2c(s1)CCCC2)c1cc2n(n1)C(C(F)(F)F)CC(C1CC1)N2 (configuration not stated) [5-Cyclopropyl-7-trifluoromethyl-4,5,6,7-tetrahydro-pyrazolo[1,5-a]pyrimidine-2-carboxylic acid (4,5,6,7-tetrahydro-benzothiazol-2-yl)-amide]
- EC50: 0.996 µM

Structure (SMILES): CC(C)c1cc(C(F)(F)F)n2nc(C(=O)Nc3ccc4c(c3)OCO4)cc2n1 [5-Isopropyl-7-trifluoromethyl-pyrazolo[1,5-a]pyrimidine-2-carboxylic acid benzo[1,3]dioxol-5-ylamide]
- EC50: 2.6 µM

Structure (SMILES): Cc1cc(N2CCN(C/C=C/c3ccccc3)CC2)n2ncnc2n1 [5-Methyl-7-[4-((E)-3-phenyl-allyl)-piperazin-1-yl]-[1,2,4]triazolo[1,5-a]pyrimidine]
- EC50: > 30 µM

Structure (SMILES): FC(F)(F)c1ccc(N2CCN(c3cc(-c4ccccc4)nc4ncnn34)CC2)nc1 [5-Phenyl-7-[4-(5-trifluoromethyl-pyridin-2-yl)-piperazin-1-yl]-[1,2,4]triazolo[1,5-a]pyrimidine]
- EC50 [1]: 31.9 µM

Structure (SMILES): CCC(NCCOc1ccc(Cl)cc1)=C1C(=O)N(C)C(=O)N(C)C1=O [5-[1-[2-(4-chlorophenoxy)ethylamino]propylidene]-1,3-dimethyl-1,3-diazinane-2,4,6-trione]
- EC50: 5.04 µM

Structure (SMILES): CCOC(=O)c1oc2ccc(S(=O)(=O)n3nc(-c4ccc(OC)cc4)cc3N)cc2c1C [5-[5-amino-3-(4-methoxyphenyl)pyrazol-1-yl]sulfonyl-3-methyl-coumarilic acid ethyl ester]
- EC50 [1]: 30.4 µM

Structure (SMILES): Cc1ccc(OCc2nc(-c3ccccc3)no2)c(C)c1 [5-[(2,4-dimethylphenoxy)methyl]-3-phenyl-1,2,4-oxadiazole]
- EC50: 2.66 µM

Structure (SMILES): Clc1ccc(OCc2nc(-c3ccncc3)no2)c(Br)c1 [5-[(2-bromanyl-4-chloranyl-phenoxy)methyl]-3-pyridin-4-yl-1,2,4-oxadiazole]
- EC50: 3.86 µM

Structure (SMILES): CC(C)c1ccc(OCc2nc(-c3ccccn3)no2)c(Br)c1 [5-[(2-bromanyl-4-propan-2-yl-phenoxy)methyl]-3-pyridin-2-yl-1,2,4-oxadiazole]
- EC50: 4.45 µM

Structure (SMILES): COC(=O)c1cc(NCc2ccccc2F)ccc1N1CCOCC1 [5-[(2-fluorobenzyl)amino]-2-morpholino-benzoic acid methyl ester]
- EC50: 8.9 µM

Structure (SMILES): Oc1c(C(c2ccco2)N2CCN(C(c3ccccc3)c3ccccc3)CC2)sc2ncnn12 (configuration not stated) [5-[(4-benzhydrylpiperazin-1-yl)-(furan-2-yl)methyl]-[1,3]thiazolo[3,2-b][1,2,4]triazol-6-ol]
- EC50 [1]: 15.9 µM

Structure (SMILES): COc1ccccc1-n1nnnc1SCc1cc2c(cc1Br)OCO2 [5-[(6-bromanyl-1,3-benzodioxol-5-yl)methylsulfanyl]-1-(2-methoxyphenyl)-1,2,3,4-tetrazole]
- EC50: > 10 µM

Structure (SMILES): COC(=O)c1cc(CSc2nnc(-c3ccccc3)c(-c3ccccc3)n2)oc1C [5-[[(5,6-diphenyl-1,2,4-triazin-3-yl)thio]methyl]-2-methyl-3-furancarboxylic acid methyl ester]
- EC50: 1.73 µM

Structure (SMILES): COC(=O)c1ccc(CSc2nc3ccccc3c(=O)n2Cc2ccco2)o1 [5-[[[3-(2-furanylmethyl)-4-oxo-2-quinazolinyl]thio]methyl]-2-furancarboxylic acid methyl ester]
- EC50 [1]: 18.8 µM

Structure (SMILES): O=C(Nc1ccc(N2CCCC2)c(Cl)c1)c1ccc(Br)o1 [5-bromanyl-N-(3-chloranyl-4-pyrrolidin-1-yl-phenyl)furan-2-carboxamide]
- EC50: 4.15 µM

Structure (SMILES): O=S(=O)(NCc1ccncc1)c1ccc(Br)s1 [5-bromanyl-N-(pyridin-4-ylmethyl)thiophene-2-sulfonamide]
- EC50: 2.63 µM

Structure (SMILES): Cc1nn(Cc2ccc(Cl)c(Cl)c2)c(C)c1NC(=O)c1cc(C2CC2)on1 [5-cyclopropyl-N-[1-(3,4-dichlorobenzyl)-3,5-dimethyl-pyrazol-4-yl]isoxazole-3-carboxamide]
- EC50 [1]: 10.6 µM
